{"source": "patent US20190032079A1", "about": "“SYSTEMIC SYNTHESIS AND REGULATION OF L-DOPA” (MYODOPA LIMITED, priority 2015, published 2019)", "origin": "cited, not measured here", "key": {"[1]": {"molecular_target": "TH (Rattus norvegicus, UniProt P04177)", "sequence (P04177 whole entry)": "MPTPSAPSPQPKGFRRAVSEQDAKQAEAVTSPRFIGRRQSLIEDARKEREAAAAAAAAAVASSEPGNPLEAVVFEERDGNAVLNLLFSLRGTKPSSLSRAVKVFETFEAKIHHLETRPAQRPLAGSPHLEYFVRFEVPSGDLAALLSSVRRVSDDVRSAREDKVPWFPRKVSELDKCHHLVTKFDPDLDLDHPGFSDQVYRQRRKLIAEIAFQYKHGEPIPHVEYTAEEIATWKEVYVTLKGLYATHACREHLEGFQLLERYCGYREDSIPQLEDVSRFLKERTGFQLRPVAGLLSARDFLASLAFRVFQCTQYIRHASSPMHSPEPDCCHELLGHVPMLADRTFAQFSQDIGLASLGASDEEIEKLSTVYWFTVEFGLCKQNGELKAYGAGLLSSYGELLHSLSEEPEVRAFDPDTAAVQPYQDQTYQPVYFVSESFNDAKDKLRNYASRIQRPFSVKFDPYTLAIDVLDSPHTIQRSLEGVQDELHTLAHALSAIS"}, "[2]": {"molecular_target": "THΔ68 (Rattus norvegicus, UniProt P04177)", "sequence (P04177 69-498 limits assumed, stated change not applied)": "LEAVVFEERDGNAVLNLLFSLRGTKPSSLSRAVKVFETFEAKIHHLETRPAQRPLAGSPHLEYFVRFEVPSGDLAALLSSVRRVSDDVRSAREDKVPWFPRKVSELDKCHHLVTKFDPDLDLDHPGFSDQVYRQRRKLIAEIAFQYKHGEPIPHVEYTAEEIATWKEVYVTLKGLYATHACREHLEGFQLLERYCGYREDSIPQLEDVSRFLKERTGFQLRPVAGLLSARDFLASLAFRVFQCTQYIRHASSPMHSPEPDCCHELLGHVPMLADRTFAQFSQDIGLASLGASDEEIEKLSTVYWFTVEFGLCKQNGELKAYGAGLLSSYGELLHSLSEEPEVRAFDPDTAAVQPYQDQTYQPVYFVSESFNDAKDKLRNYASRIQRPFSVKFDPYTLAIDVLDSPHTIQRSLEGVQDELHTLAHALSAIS"}, "[3]": {"system": "TH"}, "[4]": {"molecular_target": "THΔ32 (Rattus norvegicus, UniProt P04177)", "sequence (P04177 33-498 limits assumed, stated change not applied)": "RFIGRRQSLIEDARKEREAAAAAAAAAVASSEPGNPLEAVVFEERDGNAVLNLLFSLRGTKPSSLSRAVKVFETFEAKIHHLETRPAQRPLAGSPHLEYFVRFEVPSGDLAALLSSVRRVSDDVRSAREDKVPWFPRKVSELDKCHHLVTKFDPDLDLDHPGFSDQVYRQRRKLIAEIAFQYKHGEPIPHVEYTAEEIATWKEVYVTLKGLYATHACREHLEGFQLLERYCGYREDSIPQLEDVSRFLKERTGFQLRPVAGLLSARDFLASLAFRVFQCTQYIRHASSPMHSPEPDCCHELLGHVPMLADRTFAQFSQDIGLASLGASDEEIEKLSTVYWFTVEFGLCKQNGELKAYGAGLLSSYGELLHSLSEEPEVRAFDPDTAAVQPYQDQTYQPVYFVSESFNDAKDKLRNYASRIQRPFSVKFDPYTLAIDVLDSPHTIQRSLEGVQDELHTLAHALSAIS"}, "[5]": {"conditions": "intra-intestinal infusion; improved control of PD and dyskinesia"}, "[6]": {"conditions": "preincubation with stoichiometric amounts of dopamine"}}, "note": "Read-outs that look alike come from different tables or passages of the source.", "data": [{"compound": "N[C@@H](Cc1ccc(O)c(O)c1)C(=O)O", "note": "[L-DOPA, L-3,4-dihydroxyphenylalanine]", "values": [{"measurement": "therapeutic range for plasma L-DOPA", "result": "0.2 to 1.5", "unit": "mg/L"}]}, {"compound": "O=C(O)Cc1ccc(O)c(O)c1", "note": "[dihydroxyphenylacetate]", "values": [{"measurement": "binds less tightly than DOPA", "setting": "[1]; relative to DOPA", "result": 100, "unit": "fold"}]}, {"compound": "NCCc1ccc(O)c(O)c1", "note": "[dopamine]", "values": [{"measurement": "binds more tightly than DOPA", "setting": "[1]; relative to DOPA", "result": 1000, "unit": "fold"}, {"measurement": "decrease of DA affinity for TH when the enzyme is phosphorylated", "setting": "[1]; ser40 phosphorylation", "result": 300, "unit": "fold"}, {"measurement": "dopamine release from the enzyme", "setting": "[2]", "result": "rapidly released"}, {"measurement": "inhibition by dopamine", "setting": "[2]; [6]", "result": "not inhibited"}, {"measurement": "increase of TH activity on dissociation of dopamine from the low-affinity site", "setting": "[3]; Ser40-phosphorylated enzyme", "result": 9, "unit": "fold"}, {"measurement": "increase of TH activity on dissociation of dopamine from the low-affinity site", "setting": "[3]; non-phosphorylated enzyme", "result": 12, "unit": "fold"}, {"measurement": "Kd", "setting": "[3]; read-out: K(D), second low affinity dopamine-binding site, present in non-phosphorylated and Ser40-phosphorylated forms", "result": 90, "unit": "nM"}, {"measurement": "dopamine release from the enzyme", "setting": "[4]", "result": "not released"}, {"measurement": "inhibition by dopamine", "setting": "[4]; [6]", "result": 90, "unit": "%"}]}, {"compound": "COC(=O)[C@@H](N)Cc1ccc(O)c(O)c1", "note": "[levodopa methyl ester]", "values": [{"measurement": "plasma levels of Levodopa", "setting": "[5]", "result": "3000 to 4000", "unit": "ng/mL"}]}]}
